Data on five molecules can be found in PMC4344250, “Characterization of the Major Light-Harvesting Complexes (LHCBM) of the Green Alga Chlamydomonas reinhardtii” (PLoS ONE, 2015).

Assay [1] has as its target LHCBM2/7 (type III major light-harvesting complex protein of Chlamydomonas reinhardtii) (Chlamydomonas reinhardtii). Description: sucrose density gradient ultracentrifugation + non-denaturing isoelectrofocusing (composition by SDS-PAGE); thylakoids solubilised with alpha-DM; trimeric band (B3) of the sucrose gradient separated by flat-bed ndIEF (ampholites pH 3.5-5, 0.06% beta-DM, 4 °C, 15 h); fractions run again as single bands on sucrose gradients (0.06% beta-DM, 20 mM Hepes pH 7.5); proteins identified by Tricine SDS-PAGE.

Assay [2] has as its target T1, LHCBM9 (Chlamydomonas reinhardtii, UniProt Q8S3T9). Description: in vitro reconstitution, Ni-affinity and sucrose gradient, HPLC of bound pigments. Type of assay: binding. The following applies: C. reinhardtii pigment mix; measured only as Neo+loro sum.
Assay [3] deals with T2, LHCBM1 (Chlamydomonas reinhardtii, UniProt Q93VE0).
T2 construct: gene LhcII-4
The description is as above. Format: binding. The following applies: C. reinhardtii pigment mix, measured only as Neo+loro sum.

Assay [4] deals with T2, LHCBM1. The assay is described as above. The following applies: C. reinhardtii pigment mix, Chl a/b 2.5, stoichiometry, not an affinity. Type of assay: binding. From the text: in vitro reconstitution, Ni-affinity and sucrose gradient, HPLC of bound pigments on LHCBM1
For assay [5], the target named is T1, LHCBM9. The description is as above. Conditions: C. reinhardtii pigment mix, Chl a/b 2.5; stoichiometry, not an affinity. Format: binding. The source says: in vitro reconstitution, Ni-affinity and sucrose gradient, HPLC of bound pigments on LHCBM9
For assay [6], the target named is T3, LHCBM6 (Chlamydomonas reinhardtii, UniProt A8J287).
T3 construct: gene CHLRE_06g285250v5
The assay is described as above. The following applies: C. reinhardtii pigment mix, Chl a/b 2.5; stoichiometry, not an affinity. Type of assay: binding. The source says:
in vitro reconstitution, Ni-affinity and sucrose gradient, HPLC of bound pigments on LHCBM6

The target of assay [7] is T4, LHCBM5 (Chlamydomonas reinhardtii, UniProt Q9ZSJ4).
T4 construct: gene Lhcb3
Described as above. Format: binding. The following applies: C. reinhardtii pigment mix, Chl a/b 2.5; stoichiometry, not an affinity. From the text:
in vitro reconstitution, Ni-affinity and sucrose gradient, HPLC of bound pigments on LHCBM5

Assay [8] addresses T5, LHCBM2 (Chlamydomonas reinhardtii, UniProt Q93WE0).
T5 construct: gene LhcII-3
The description is as above. The following applies: C. reinhardtii pigment mix, Chl a/b 2.5; stoichiometry, not an affinity. Format: binding. The source says: in vitro reconstitution, Ni-affinity and sucrose gradient, HPLC of bound pigments on LHCBM2

T2 sequence (Q93VE0 entry or part of it): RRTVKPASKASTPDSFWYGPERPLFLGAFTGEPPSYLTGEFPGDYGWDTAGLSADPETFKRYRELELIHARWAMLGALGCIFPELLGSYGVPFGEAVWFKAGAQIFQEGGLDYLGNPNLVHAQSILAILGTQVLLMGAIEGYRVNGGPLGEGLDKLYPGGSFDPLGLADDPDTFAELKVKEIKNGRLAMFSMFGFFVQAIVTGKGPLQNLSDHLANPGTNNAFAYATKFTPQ
T1 sequence (Q8S3T9 entry or part of it): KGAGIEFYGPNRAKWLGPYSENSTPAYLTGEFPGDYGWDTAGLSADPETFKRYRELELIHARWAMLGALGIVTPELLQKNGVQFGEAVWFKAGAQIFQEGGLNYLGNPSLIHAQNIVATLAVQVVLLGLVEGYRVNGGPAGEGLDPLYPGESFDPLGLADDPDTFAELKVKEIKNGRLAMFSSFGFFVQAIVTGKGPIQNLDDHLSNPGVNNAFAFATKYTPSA
T5 sequence (Q93WE0 entry or part of it): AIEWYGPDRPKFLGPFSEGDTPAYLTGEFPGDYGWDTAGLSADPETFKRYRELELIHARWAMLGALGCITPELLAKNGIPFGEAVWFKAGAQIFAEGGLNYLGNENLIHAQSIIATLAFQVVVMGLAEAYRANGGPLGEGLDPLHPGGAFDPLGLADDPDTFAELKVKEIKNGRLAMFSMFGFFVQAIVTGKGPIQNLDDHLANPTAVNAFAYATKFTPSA
T4 sequence (Q9ZSJ4 entry or part of it): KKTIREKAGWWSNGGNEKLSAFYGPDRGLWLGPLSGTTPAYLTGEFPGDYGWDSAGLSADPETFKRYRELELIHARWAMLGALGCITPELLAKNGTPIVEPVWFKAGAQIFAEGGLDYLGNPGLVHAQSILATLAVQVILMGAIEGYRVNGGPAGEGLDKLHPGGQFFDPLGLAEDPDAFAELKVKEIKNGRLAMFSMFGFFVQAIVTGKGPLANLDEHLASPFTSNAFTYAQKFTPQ
T3 sequence (A8J287 entry or part of it): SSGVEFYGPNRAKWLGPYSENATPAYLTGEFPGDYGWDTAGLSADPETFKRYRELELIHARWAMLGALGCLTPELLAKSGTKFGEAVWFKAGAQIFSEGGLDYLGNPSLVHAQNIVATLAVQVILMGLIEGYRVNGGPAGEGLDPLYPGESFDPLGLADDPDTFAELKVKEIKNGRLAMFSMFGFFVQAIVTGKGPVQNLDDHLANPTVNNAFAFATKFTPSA

For “LHCBM2/7 (type III major light-harvesting complex protein of Chlamydomonas reinhardtii) (natural protein)”, the stoichiometry N in assay [1] came to 3.

As to `CC1=C[C@H](O)CC(C)(C)[C@H]1/C=C/C(C)=C/C=C/C(C)=C/C=C/C=C(C)/C=C/C=C(/C=C/C1=C(C)C[C@@H](O)CC1(C)C)CO` [loroxanthin], the “in vitro reconstitution, Ni-affinity and sucrose gradient, HPLC of bound pigment” value in assay [2] is “All LHCBMs contain lutein, loroxanthin and neoxanthin and a small amount of violaxanthin”; in assay [3] (internal carotenoid site (L1 proposed)), “All LHCBMs contain lutein, loroxanthin and neoxanthin and a small amount of violaxanthin”.

In the case of `CC(/C=C/C=C(C)/C=C/[C@@]12O[C@]1(C)C[C@@H](O)CC2(C)C)=C\C=C\C=C(C)\C=C\C=C(C)\C=C\[C@@]12O[C@]1(C)C[C@@H](O)CC2(C)C` [violaxanthin], the results for the Vio/mon in assay [4] (V1 site suggested) and in assay [5] were 0.11±0.01 mol per monomer (normalised to 14 Chls) and 0.24±0.01 mol per monomer (normalised to 14 Chls), respectively.

Turning to `CC(=C/C=C/C(C)=C/C=C/C=C(C)/C=C/C=C(\C)C=C=C1C(C)(C)C[C@H](O)C[C@@]1(C)O)/C=C/[C@@]12O[C@]1(C)C[C@@H](O)CC2(C)C` [neoxanthin], in assay [3] (N1 site suggested), the “in vitro reconstitution, Ni-affinity and sucrose gradient, HPLC of bound pigment” value was “All LHCBMs contain lutein, loroxanthin and neoxanthin and a small amount of violaxanthin”.

Consider `CC1=C[C@H](O)CC(C)(C)[C@H]1/C=C/C(C)=C/C=C/C(C)=C/C=C/C=C(C)/C=C/C=C(C)/C=C/C1=C(C)C[C@@H](O)CC1(C)C` [lutein], for which the Lut/mon is on record as 1.32±0.01 mol per monomer (normalised to 14 Chls) in assay [4]; 1.19±0.06 mol per monomer (normalised to 14 Chls) in assay [5]; 1.25±0.01 mol per monomer (normalised to 14 Chls) in assay [6]; 1.38±0.01 mol per monomer (normalised to 14 Chls) in assay [7]; 1.43±0.04 mol per monomer (normalised to 14 Chls) in assay [8].

A word on the stoichiometry N: it is a count of units in the complex or per binding partner.
